Experimental data reported in US20030181498A1, “Bicyclic heteroaryl compounds as inhibitors of the interaction between the integrin alpha4beta1 receptor and vcam-1 and/or fibronectin” (AstraZeneca AB, priority 2000, published 2003).

Target: T1, integrin α4β1 expressed on the MOLT-4 cell membrane with fibronectin (Homo sapiens, UniProt P05556+P13612)
T1 construct: integrin α4β1 expressed on the MOLT-4 cell membrane; host or cells: MOLT-4 human T-lymphoblastic leukaemia cells
Assay: MOLT-4 cell/fibronectin adhesion assay
Type: cell-based
Conditions: MOLT-4 cells, fibronectin-coated plates, 2 h at 37° C.; read-out: inhibitor at (inhibition of MOLT-4 cell adhesion to fibronectin)
Description: MOLT4 cells—human T-lymphoblastic leukaemia cells European Collection of Anil Cell Cultures, Porton Down)
Fibronectin—purified from human plasma by gelatin-sepharose affinity chromatography according to the methods described in E. Nengvall, E. Ruoslahti, Int. J. Cancer, 1977, 20, pages 1-5 and J. Forsyth et al, Methods in Enzymology, 1992, 21 pages 311-316).
1.1.1 MOLT-4 Cell/Fibronectin Adhesion Assay.
The MOLT-4 cell/fibronectin adhesion assay was used to investigate the interaction of the integrin α4β1 expressed on the MOLT-4 cell membrane with fibronectin. Polystyrene 96 well plates were coated overnight at 4° C. with fibronectin, 100 μl of 10 μg/ml in PBS. Non-specific adhesion sites were blocked by adding 100 μl BSA, 20 mg/ml. After incubating for 1 h at room temperature, the solutions were aspirated. […] Adherent cells were quantified by a colorimetric acid phosphatase assay. […] After incubation for 1 h at 37° C., 50 μl sodium hydroxide (1M) was added to each well and the absorbance 405 nm was measured on a microplate spectrophotometer. Compounds which inhibited adhesion gave a lower absorbance reading. […] Percentage inhibition was calculated with respect to total (no inhibitor) and non-specific (no fibronectin) standards on each plate. […]

T1 sequence (P13612 34-1032): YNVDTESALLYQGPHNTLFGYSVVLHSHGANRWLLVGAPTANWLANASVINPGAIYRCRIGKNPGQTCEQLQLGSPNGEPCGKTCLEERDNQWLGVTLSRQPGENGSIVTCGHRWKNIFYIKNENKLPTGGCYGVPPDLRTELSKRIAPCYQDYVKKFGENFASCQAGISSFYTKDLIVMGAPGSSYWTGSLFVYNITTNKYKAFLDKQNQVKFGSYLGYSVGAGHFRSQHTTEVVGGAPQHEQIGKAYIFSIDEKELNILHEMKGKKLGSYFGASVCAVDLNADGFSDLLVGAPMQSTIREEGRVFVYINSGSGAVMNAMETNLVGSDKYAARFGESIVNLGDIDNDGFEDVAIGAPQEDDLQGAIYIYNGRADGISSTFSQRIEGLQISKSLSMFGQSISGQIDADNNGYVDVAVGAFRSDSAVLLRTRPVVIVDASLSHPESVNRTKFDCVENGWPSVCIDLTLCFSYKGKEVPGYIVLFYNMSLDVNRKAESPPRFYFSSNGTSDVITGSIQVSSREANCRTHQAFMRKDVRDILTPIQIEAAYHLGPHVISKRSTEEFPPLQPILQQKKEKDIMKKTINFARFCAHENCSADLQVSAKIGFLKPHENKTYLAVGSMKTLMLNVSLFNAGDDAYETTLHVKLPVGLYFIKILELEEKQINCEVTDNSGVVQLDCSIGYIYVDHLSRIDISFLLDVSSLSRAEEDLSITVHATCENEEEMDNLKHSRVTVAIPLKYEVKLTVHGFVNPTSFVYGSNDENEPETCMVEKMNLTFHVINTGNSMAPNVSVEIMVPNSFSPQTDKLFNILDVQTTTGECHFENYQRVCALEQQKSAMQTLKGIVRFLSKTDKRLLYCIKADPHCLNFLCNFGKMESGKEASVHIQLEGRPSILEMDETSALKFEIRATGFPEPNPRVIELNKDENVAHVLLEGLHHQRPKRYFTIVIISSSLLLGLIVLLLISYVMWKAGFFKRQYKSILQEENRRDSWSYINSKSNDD
T1 sequence (P05556 21-798): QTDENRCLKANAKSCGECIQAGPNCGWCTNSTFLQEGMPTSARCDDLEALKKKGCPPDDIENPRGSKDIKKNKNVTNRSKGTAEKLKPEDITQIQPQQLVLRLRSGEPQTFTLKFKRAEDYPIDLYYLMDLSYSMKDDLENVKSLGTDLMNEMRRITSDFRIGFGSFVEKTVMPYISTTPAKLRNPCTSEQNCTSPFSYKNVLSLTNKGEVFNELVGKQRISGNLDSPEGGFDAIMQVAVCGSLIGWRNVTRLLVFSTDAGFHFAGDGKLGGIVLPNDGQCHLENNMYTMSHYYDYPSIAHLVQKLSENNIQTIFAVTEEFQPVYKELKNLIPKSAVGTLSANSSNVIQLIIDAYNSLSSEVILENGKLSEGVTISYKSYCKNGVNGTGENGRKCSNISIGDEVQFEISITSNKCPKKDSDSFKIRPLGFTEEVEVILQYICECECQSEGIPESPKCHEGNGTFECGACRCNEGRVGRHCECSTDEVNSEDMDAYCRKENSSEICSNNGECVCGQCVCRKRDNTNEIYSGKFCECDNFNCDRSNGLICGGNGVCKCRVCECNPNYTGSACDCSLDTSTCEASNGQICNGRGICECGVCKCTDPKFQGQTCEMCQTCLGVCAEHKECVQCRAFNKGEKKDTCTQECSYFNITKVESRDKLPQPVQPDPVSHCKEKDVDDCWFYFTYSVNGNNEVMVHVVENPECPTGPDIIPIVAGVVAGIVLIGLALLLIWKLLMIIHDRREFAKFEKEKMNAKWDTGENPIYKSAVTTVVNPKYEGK

IC50: 1.1 µM
SMILES: COc1cc(CC(=O)Nc2ccc(=O)n(CCCCC(=O)O)c2)cc2oc(Nc3ccccc3)nc12 [Compound CV]
